PMC10707934, “Design and Synthesis of Novel α-Methylchalcone Derivatives, Anti-Cervical Cancer Activity, and Reversal of Drug Resistance in HeLa/DDP Cells” (Molecules, 2023)

Assays:
[1] = tested on: HeLa cells; experiment: MTT anti-proliferation assay, HeLa; type: cell-based, human; conditions: Homo sapiens, 48 h, mean ± SD
Experimental: All cell types, at a volume of 200 µL per well, were inoculated in 96-well plates at a density of 2.5 × 10^4 cells / mL and cultured for 24 h in an incubator with 5% CO2 at 37 °C. The old culture medium was replaced with 200 µL of fresh medium per well containing positive compounds, at concentrations of 1, 6.25, 12.5, 25, 50, and 100 μM. After 48 h of culture, 20 µL per well of 5 mg·mL^−1 MTT solution was added. After 4 h of culture, the old solution was discarded, and 150 µL per well of DMSO solution was added. Using an enzyme labeler (Thermo Fisher Scientific, Multiskan GO, Waltham, MA, USA), the plates were shaken for 10 min, OD values were determined at 490 nm, and the inhibition rate was calculated. Non-linear regression fitting of the cell growth rate was carried out using SPSS 23.0, and the IC50 of the compound was calculated. The inhibition rate was calculated using the formula: [(ODempty − ODtest)/(ODempty − ODnegative group)] × 100%, (ODempty blank group absorbance, ODtest absorbance of administration group, ODnegative group without cell culture medium). Each group contained six compound holes, and the experimental results averaged three trials. Complete medium containing only cells was used as the blank control; a complete medium without cells as was used as the negative control; and cisplatin, paclitaxel, and adriamycin were used as the positive controls. The concentration gradient was the same as that used for compounds 3a–3p. […]

[2] = tested on: C33A cells; experiment: MTT anti-proliferation assay, C33A; type: cell-based, human; conditions: Homo sapiens, C-33-A, 48 h, mean ± SD
Experimental: (§1) All cell types, at a volume of 200 µL per well, were inoculated in 96-well plates at a density of 2.5 × 10^4 cells / mL and cultured for 24 h in an incubator with 5% CO2 at 37 °C. The old culture medium was replaced with 200 µL of fresh medium per well containing positive compounds, at concentrations of 1, 6.25, 12.5, 25, 50, and 100 μM. After 48 h of culture, 20 µL per well of 5 mg·mL^−1 MTT solution was added. After 4 h of culture, the old solution was discarded, and 150 µL per well of DMSO solution was added. Using an enzyme labeler (Thermo Fisher Scientific, Multiskan GO, Waltham, MA, USA), the plates were shaken for 10 min, OD values were determined at 490 nm, and the inhibition rate was calculated. Non-linear regression fitting of the cell growth rate was carried out using SPSS 23.0, and the IC50 of the compound was calculated. The inhibition rate was calculated using the formula: [(ODempty − ODtest)/(ODempty − ODnegative group)] × 100%, (ODempty blank group absorbance, ODtest absorbance of administration group, ODnegative group without cell culture medium). Each group contained six compound holes, and the experimental results averaged three trials. Complete medium containing only cells was used as the blank control; a complete medium without cells as was used as the negative control; and cisplatin, paclitaxel, and adriamycin were used as the positive controls. The concentration gradient was the same as that used for compounds 3a–3p.

[3] = tested on: SiHa cells; experiment: MTT anti-proliferation assay, SiHa; type: cell-based, human; conditions: Homo sapiens, 48 h, mean ± SD
Experimental: as §1

[4] = tested on: human cervical epithelial cells H8; experiment: MTT toxicity assay, normal cervical epithelial cells H8; type: cell-based; conditions: Homo sapiens, Epithelial cell, 48 h, mean ± SD
Experimental: as §1

[5] = tested on: HeLa/DDP cells; experiment: MTT anti-cisplatin-resistant cervical cancer activity, HeLa/DDP; type: cell-based, human; conditions: 48 h
Experimental: as §1
To mitigate the detrimental consequences arising from the fixation of resistance reversal agents, concentrations that yielded a tumor cell proliferation rate reduction of less than 10% were selected. Consequently, the inhibitory efficacy of compound 3k against HeLa/DDP cells was assessed in conjunction with cisplatin at concentrations of 0.25, 0.5, and 1 μM. The experimental procedure employed was akin to that elucidated in Section 3.3.2. The impact of verapamil (6 μM) and 3k (0.25, 0.5, and 1 μM) on P-gp expression was ascertained via Western blot experiments, employing the same methodology delineated in Section 3.3.4.

| SMILES | IC50 [1] | IC50 [2] | IC50 [3] | melting point | IC50 [4] | resistance index (RI) ([5]; HeLa/DDP versus parental HeLa) | IC50 ([5]; Homo sapiens, HeLa/DDP, MTT, mean ± SD) |
| --- | --- | --- | --- | --- | --- | --- | --- |
| COc1cc(OC)c(OC)cc1/C=C(\C)C(=O)c1ccc(Cl)c(Cl)c1 [Compound 3a, (E)-1-(3,4-Dichlorophenyl)-2-methyl-3-(2,4,5-trimethoxyphenyl)prop-2-en-1-one] | > 100 µM | 69.9 ± 7.18 µM | 23.5 ± 4.55 µM | 129.6 to 130.5 °C | > 100 µM |  |  |
| COc1cc(/C=C(\C)C(=O)c2ccc(Cl)c(Cl)c2)cc(OC)c1OC [Compound 3b, (E)-1-(3,4-Dichlorophenyl)-2-methyl-3-(3,4,5-trimethoxyphenyl)prop-2-en-1-One] | 43.8 ± 3.68 µM | 57 ± 6.27 µM | 28.4 ± 2.37 µM |  | 57.7 ± 4.7 µM |  |  |
| COc1ccc(/C=C(\C)C(=O)c2ccc(Cl)c(Cl)c2)c(OC)c1OC [Compound 3c, (E)-1-(3,4-Dichlorophenyl)-2-methyl-3-(2,3,4-trimethoxyphenyl)prop-2-en-1-one] | > 100 µM | 33.9 ± 4.99 µM | 41.8 ± 5.1 µM | 114.1 to 115.5 °C | > 100 µM |  |  |
| COc1cc(OC)c(/C=C(\C)C(=O)c2ccc(Cl)c(Cl)c2)c(OC)c1 [Compound 3d, (E)-1-(3,4-Dichlorophenyl)-2-methyl-3-(2,4,6-trimethoxyphenyl)prop-2-en-1-one] | 97.6 ± 7.61 µM | 63.7 ± 2.59 µM | > 100 µM | 67.1 to 67.8 °C | > 100 µM |  |  |
| COc1cc(OC)c(/C=C(\C)C(=O)c2ccc(Cl)cc2Cl)c(OC)c1 [Compound 3e, (E)-1-(2,4-dichlorophenyl)-2-methyl-3-(2,4,6-trimethoxyphenyl)prop-2-en-1-one] | > 100 µM | > 100 µM | > 100 µM | 104.6 to 105.7 °C | > 100 µM |  |  |
| COc1ccc(/C=C(\C)C(=O)c2ccc(Cl)c(Cl)c2)c(OC)c1 [Compound 3f, (E)-1-(3,4-dichlorophenyl)-3-(2,4-dimethoxyphenyl)-2-methylprop-2-en-1-one] | > 100 µM | 23.7 ± 4.07 µM | > 100 µM | 112.3 to 113.6 °C | > 100 µM |  |  |
| COc1cccc(OC)c1/C=C(\C)C(=O)c1ccc(Cl)c(Cl)c1 [Compound 3g, (E)-1-(3,4-dichlorophenyl)-3-(2,6-dimethoxyphenyl)-2-methylprop-2-en-1-one] | 56.1 ± 4.58 µM | 44.8 ± 2.85 µM | > 100 µM | 134.4 to 135.6 °C | > 100 µM |  |  |
| COc1cc(/C=C(\C)C(=O)c2ccc(Cl)c(Cl)c2)cc(OC)c1 [Compound 3h, (E)-1-(3,4-Dichlorophenyl)-3-(3,5-dimethoxyphenyl)-2-methylprop-2-en-1-one] | > 100 µM | 54.4 ± 11.5 µM | > 100 µM | 157 to 158.1 °C | > 100 µM |  |  |
| COc1cccc(/C=C(\C)C(=O)c2ccc(Cl)c(Cl)c2)c1OC [Compound 3i, (E)-1-(3,4-Dichlorophenyl)-3-(2,3-dimethoxyphenyl)-2-methylprop-2-en-1-one] | > 100 µM | 30.7 ± 8.84 µM | > 100 µM | 99.8 to 100.7 °C | > 100 µM |  |  |
| COc1ccc(OC)c(/C=C(\C)C(=O)c2ccc(Cl)c(Cl)c2)c1 [Compound 3j, (E)-1-(3,4-Dichlorophenyl)-3-(2,5-dimethoxyphenyl)-2-methylprop-2-en-1-one] | > 100 µM | 28.5 ± 3.78 µM | > 100 µM |  | > 100 µM |  |  |
| COc1ccccc1/C=C(\C)C(=O)c1ccc(Cl)c(Cl)c1 [Compound 3l, (E)-1-(3,4-Dichlorophenyl)-3-(2-methoxyphenyl)-2-methylprop-2-en-1-one] | > 100 µM | 17.3 ± 2.24 µM | 22.5 ± 1.36 µM | 92.8 to 93.6 °C | > 100 µM |  |  |
| COc1ccc(/C=C(\C)C(=O)c2ccc(Cl)c(Cl)c2)cc1 [Compound 3m, (E)-1-(3,4-Dichlorophenyl)-3-(4-methoxyphenyl)-2-methylprop-2-en-1-one] | 29.8 ± 0.98 µM | 35.1 ± 4.75 µM | 67.7 ± 5.6 µM | 70 to 71.1 °C | > 100 µM |  |  |
| C/C(=C\c1ccc(N(C)C)cc1)C(=O)c1ccc(Cl)c(Cl)c1 [Compound 3n, (E)-1-(3,4-Dichlorophenyl)-3-(4-(dimethylamino)phenyl)-2-methylprop-2-en-1-one] | > 100 µM | 23.4 ± 3.42 µM | > 100 µM | 184 to 184.8 °C | > 100 µM |  |  |
| CCN(CC)c1ccc(/C=C(\C)C(=O)c2ccc(Cl)c(Cl)c2)cc1 [Compound 3o, (E)-1-(3,4-Dichlorophenyl)-3-(4-(diethylamino)phenyl)-2-methylprop-2-en-1-one] | > 100 µM | 35 ± 4.93 µM | > 100 µM | 186.7 to 190.8 °C | > 100 µM |  |  |
| CCN(CC)c1ccc(/C=C(\C)C(=O)c2ccc(Cl)cc2Cl)cc1 [Compound 3p, (E)-1-(2,4-Dichlorophenyl)-3-(4-(diethylamino)phenyl)-2-methylprop-2-en-1-one] | > 100 µM | 41.4 ± 5.42 µM | > 100 µM |  | > 100 µM |  |  |
| COc1cccc2c1C(=O)c1c(O)c3c(c(O)c1C2=O)C[C@@](O)(C(=O)CO)C[C@@H]3O[C@H]1C[C@H](N)[C@H](O)[C@H](C)O1 [Doxorubicin] | 10.4 ± 1.09 µM |  |  |  |  | 3.68 | 38.3 ± 4.57 µM |
